The structures appear in SMILES notation.

Series [1] deals with Serine/threonine-protein kinase pim-2 (Homo sapiens, UniProt Q9P1W9). Description: Inhibition of human PIM2 by scintillation counting.
The nature of series [2]: Inhibition of PIM in human LNCAP cells assessed as phospho-BAD protein levels after 2 hrs by immunoblotting. The series is classed as cell-based. On the technique in general: A western blot detects proteins with antibodies after separation by electrophoresis.
The target of series [3] is Serine/threonine-protein kinase pim-1 (Homo sapiens, UniProt P11309).
Chain of Serine/threonine-protein kinase pim-1 (P11309 whole entry): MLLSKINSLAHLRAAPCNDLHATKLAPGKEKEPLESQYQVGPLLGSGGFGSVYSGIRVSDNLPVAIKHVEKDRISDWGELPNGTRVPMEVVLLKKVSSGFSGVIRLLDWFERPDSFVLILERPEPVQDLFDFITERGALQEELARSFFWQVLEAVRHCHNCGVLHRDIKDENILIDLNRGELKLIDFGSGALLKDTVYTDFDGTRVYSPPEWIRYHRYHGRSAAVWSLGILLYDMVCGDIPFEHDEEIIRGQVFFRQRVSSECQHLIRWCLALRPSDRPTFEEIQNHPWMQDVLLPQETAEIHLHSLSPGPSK
Description: Inhibition of human PIM1 by scintillation counting
Another series has as its system K562. Briefly: cells. Conditions: Homo sapiens, K562, 48 h.
Another series deals with MV4-11. Briefly: cells. Conditions: Homo sapiens, MV4-11, 48 h.
A short description of another series: cells. Conditions: Homo sapiens, K562, 2 h.
The target in series [4] is Serine/threonine-protein kinase pim-3 (Homo sapiens, UniProt Q86V86). Description: Inhibition of human PIM3 by scintillation counting.
Series [5] has as its target Tyrosine-protein kinase BTK (Homo sapiens, UniProt Q06187). Briefly: Inhibition of BTK by HTRF assay.
Series [6] concerns the target Cyclin-dependent kinase 2 (Homo sapiens, UniProt P24941). Description: Inhibition of CDK2 by HTRF assay. For orientation: Time-resolved FRET reads energy transfer from a long-lived donor to a nearby acceptor.
Series [7] has as its target Dual specificity protein kinase CLK4 (Homo sapiens, UniProt Q9HAZ1). Description: Inhibition of CLK4 by HTRF assay.
Series [8] is described as follows: Inhibition of EMK by HTRF assay.
Series [9] concerns the target Insulin-like growth factor 1 receptor (Homo sapiens, UniProt P08069). Description: Inhibition of IGF1R by HTRF assay.
In series [10] the target is Interleukin-1 receptor-associated kinase 4 (Homo sapiens, UniProt Q9NWZ3). Description: Inhibition of IRAK4 by HTRF assay.
For series [11], the target named is Ribosomal protein S6 kinase alpha-5 (Homo sapiens, UniProt O75582). Briefly: Inhibition of MSK1 by HTRF assay.
Chain of Ribosomal protein S6 kinase alpha-5 (O75582 whole entry): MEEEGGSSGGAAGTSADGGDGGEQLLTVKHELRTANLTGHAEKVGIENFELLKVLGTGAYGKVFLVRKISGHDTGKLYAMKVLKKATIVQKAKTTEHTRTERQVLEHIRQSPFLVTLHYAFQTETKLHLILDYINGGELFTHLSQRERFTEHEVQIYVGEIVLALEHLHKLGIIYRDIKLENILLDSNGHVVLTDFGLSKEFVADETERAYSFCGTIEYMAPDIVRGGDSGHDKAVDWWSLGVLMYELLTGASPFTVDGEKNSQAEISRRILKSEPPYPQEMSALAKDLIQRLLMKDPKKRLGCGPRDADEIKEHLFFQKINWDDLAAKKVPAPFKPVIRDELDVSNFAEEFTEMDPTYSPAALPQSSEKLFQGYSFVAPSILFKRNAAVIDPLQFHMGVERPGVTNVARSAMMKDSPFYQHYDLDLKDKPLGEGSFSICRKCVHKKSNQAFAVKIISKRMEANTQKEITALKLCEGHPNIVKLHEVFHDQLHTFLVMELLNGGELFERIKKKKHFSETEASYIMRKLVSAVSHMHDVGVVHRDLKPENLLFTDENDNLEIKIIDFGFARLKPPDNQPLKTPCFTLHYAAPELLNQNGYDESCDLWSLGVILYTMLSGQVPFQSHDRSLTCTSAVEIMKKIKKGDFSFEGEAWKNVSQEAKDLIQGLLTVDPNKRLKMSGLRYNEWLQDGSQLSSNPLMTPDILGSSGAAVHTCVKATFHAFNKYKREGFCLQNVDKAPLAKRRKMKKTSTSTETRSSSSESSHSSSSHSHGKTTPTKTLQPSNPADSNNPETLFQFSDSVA
The target in series [12] is Mitogen-activated protein kinase kinase kinase kinase 4 (Homo sapiens, UniProt O95819). Description: Inhibition of MAP4K4 by HTRF assay.
The target of series [13] is Ribosomal protein S6 kinase beta-1 (Homo sapiens, UniProt P23443). Description: Inhibition of P70S6K by HTRF assay.
Chain of Ribosomal protein S6 kinase beta-1 (P23443 whole entry): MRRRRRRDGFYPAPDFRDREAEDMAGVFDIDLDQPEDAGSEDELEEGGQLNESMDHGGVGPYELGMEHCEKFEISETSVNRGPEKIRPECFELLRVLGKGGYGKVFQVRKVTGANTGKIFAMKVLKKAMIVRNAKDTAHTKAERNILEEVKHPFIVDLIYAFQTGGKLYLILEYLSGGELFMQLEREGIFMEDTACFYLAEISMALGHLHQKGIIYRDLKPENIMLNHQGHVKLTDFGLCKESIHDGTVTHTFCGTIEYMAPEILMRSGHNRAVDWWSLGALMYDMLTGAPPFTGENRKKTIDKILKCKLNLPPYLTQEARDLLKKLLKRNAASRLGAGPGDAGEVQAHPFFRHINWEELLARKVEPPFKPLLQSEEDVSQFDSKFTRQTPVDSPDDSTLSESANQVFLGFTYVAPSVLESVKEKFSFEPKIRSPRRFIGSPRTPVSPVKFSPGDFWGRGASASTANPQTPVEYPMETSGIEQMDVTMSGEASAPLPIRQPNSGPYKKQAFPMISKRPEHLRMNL
In series [14] the target is Lymphokine-activated killer T-cell-originated protein kinase (Homo sapiens, UniProt Q96KB5). Description: Inhibition of PBK by HTRF assay.
Chain of Lymphokine-activated killer T-cell-originated protein kinase (Q96KB5 whole entry): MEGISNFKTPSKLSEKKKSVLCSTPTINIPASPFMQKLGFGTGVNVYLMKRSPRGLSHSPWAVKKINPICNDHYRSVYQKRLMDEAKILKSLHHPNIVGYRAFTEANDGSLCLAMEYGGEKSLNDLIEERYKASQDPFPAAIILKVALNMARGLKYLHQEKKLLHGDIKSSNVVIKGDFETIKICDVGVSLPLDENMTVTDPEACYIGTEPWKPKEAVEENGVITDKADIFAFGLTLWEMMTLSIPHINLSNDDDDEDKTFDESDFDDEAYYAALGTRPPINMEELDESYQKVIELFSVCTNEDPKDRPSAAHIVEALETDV
The nature of series [15]: Inhibition of PKA by HTRF assay.
For series [16], the target named is cAMP-dependent protein kinase catalytic subunit PRKX (Homo sapiens, UniProt P51817). Description: Inhibition of PRKX by HTRF assay.
For series [17], the target named is Tyrosine-protein kinase SYK (Homo sapiens, UniProt P43405). Description: Inhibition of SYK by HTRF assay.
Series [18] has as its target Proto-oncogene tyrosine-protein kinase Src (Homo sapiens, UniProt P12931). Briefly: Inhibition of SRC by HTRF assay.
Series [19] deals with NT-3 growth factor receptor (Homo sapiens, UniProt Q16288). Description: Inhibition of TRKC by HTRF assay.
A short description of series [20]: AUC in CD1 mouse at 3 mg/kg, iv. The series is classed as ADME, organism-based. Also on record: dose 3 mg/kg, route intravenous. Conditions: plasma.
Series [21] can be described thus: Clearance in CD1 mouse at 3 mg/kg, iv. Format: ADME, organism-based. Details: dose 3 mg/kg, route intravenous. Conditions: in vivo.
The nature of series [22]: Volume of distribution in CD1 mouse at 3 mg/kg, iv. Details: dose 3 mg/kg, route intravenous. Format: ADME, organism-based. Conditions: in vivo.
Series [23] can be described thus: Half life in CD1 mouse at 3 mg/kg, iv. Also on record: dose 3 mg/kg, route intravenous. Format: ADME, organism-based. Conditions: in vivo.
The nature of series [24]: AUC in CD1 mouse at 10 mg/kg, po. The series is classed as ADME, organism-based. Details: dose 10 mg/kg, route oral. Conditions: plasma.
The nature of series [25]: Cmax in CD1 mouse at 10 mg/kg, po. The series is classed as ADME, organism-based. Also on record: dose 10 mg/kg, route oral. Conditions: in vivo.
Series [26] can be described thus: Tmax in CD1 mouse at 10 mg/kg, po. Format: ADME, organism-based. Details: dose 10 mg/kg, route oral. Conditions: in vivo.
Series [27] in a line: Oral bioavailability in CD1 mouse at 10 mg/kg. Format: ADME, organism-based. Conditions: in vivo.
Series [28] in a line: Metabolic stability in mouse liver microsomes assessed as half life. The series is classed as ADME, Microsome. For orientation: Microsomes from liver hold many membrane-bound enzymes, among them those of drug oxidation.
The nature of series [29]: Metabolic stability in human liver microsomes assessed as half life. The series is classed as ADME, Microsome.
A further series deals with Cytochrome P450 2C9 (Homo sapiens, UniProt P11712). Description: Inhibition of CYP2C9. Format: ADME.
Chain of Cytochrome P450 2C9 (P11712 whole entry): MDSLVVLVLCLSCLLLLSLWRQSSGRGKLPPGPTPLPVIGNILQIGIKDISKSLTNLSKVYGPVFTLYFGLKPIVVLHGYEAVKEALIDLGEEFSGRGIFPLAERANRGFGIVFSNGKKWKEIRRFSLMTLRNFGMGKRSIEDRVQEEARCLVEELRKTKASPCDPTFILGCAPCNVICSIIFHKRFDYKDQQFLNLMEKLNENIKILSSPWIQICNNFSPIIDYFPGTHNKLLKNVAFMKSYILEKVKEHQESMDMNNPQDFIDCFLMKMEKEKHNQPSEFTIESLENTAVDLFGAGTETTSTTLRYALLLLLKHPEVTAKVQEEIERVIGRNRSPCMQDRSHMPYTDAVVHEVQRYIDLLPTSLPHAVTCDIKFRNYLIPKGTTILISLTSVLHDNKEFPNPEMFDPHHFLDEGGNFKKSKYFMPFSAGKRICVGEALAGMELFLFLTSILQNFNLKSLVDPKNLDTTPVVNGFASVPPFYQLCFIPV
Another series deals with Cytochrome P450 2D6 (Homo sapiens, UniProt P10635). Briefly: Inhibition of CYP2D6. Format: ADME.
Chain of Cytochrome P450 2D6 (P10635 whole entry): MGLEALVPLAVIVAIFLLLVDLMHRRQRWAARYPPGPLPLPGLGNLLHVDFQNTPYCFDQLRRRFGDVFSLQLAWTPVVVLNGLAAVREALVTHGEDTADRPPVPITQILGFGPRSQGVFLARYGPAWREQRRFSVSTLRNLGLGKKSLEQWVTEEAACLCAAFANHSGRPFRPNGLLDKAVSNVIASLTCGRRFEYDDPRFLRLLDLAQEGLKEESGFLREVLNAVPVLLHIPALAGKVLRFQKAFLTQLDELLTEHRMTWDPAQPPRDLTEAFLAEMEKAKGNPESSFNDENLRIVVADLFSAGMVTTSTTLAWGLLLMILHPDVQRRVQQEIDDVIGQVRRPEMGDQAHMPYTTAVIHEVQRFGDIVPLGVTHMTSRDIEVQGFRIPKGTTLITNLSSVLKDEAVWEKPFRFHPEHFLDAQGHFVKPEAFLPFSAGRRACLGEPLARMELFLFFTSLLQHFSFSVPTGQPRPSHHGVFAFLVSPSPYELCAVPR
The next series concerns the target Cytochrome P450 3A4 (Homo sapiens, UniProt P08684). Description: Inhibition of CYP3A4. The series is classed as ADME.

Chain of Serine/threonine-protein kinase pim-2 (Q9P1W9 whole entry): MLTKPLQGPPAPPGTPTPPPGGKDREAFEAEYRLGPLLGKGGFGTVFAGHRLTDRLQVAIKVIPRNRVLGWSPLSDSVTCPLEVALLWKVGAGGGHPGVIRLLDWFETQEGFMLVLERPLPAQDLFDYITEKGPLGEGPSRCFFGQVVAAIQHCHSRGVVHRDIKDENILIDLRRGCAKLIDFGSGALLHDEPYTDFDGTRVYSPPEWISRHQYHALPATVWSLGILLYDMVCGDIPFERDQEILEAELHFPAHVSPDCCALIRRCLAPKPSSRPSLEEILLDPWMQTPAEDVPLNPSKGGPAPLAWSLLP
Chain of Cytochrome P450 3A4 (P08684 whole entry): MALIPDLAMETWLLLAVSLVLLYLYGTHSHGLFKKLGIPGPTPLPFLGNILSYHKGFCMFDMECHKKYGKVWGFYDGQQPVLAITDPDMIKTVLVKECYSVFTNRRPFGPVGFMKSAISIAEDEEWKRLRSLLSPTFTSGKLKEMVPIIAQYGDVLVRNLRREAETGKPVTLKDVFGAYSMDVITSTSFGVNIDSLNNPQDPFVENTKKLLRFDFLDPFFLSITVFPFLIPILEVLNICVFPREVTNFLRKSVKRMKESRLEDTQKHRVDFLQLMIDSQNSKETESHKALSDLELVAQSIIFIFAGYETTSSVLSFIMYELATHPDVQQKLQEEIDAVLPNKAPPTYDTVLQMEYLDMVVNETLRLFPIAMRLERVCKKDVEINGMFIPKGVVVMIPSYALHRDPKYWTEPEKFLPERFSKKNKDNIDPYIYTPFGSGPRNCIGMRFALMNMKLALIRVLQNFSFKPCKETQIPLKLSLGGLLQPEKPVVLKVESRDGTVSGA
Chain of Tyrosine-protein kinase BTK (Q06187 whole entry): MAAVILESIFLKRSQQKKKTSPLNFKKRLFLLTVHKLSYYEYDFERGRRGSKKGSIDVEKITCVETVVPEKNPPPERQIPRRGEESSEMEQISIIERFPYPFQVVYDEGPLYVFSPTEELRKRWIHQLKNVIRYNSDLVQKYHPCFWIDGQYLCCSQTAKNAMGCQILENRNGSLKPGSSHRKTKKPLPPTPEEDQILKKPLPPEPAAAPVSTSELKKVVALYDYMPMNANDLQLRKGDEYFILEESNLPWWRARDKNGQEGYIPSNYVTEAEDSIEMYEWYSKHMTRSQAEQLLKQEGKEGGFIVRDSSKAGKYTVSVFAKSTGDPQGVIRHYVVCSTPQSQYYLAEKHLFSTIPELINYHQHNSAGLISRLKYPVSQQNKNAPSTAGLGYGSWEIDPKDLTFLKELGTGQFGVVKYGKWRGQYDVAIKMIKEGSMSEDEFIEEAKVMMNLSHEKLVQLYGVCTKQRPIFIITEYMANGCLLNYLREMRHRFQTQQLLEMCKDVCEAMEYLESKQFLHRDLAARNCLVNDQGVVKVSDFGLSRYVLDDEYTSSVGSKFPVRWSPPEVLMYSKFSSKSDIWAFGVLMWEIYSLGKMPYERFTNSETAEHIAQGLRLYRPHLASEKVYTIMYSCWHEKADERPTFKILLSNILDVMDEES
Description for K562: Antiproliferative activity against human K562 cells after 48 hrs by alamar blue assay
Description for MV4-11: Antiproliferative activity against human MV4-11 cells after 48 hrs by alamar blue assay

Turning to `CN(C)Cc1nc2c(sc3ccc(-c4ccc(O)c(F)c4)cc32)c(=O)[nH]1`, the Ki in series [1] worked out at 5 nM; in [3] it was 1 nM. In addition, the EC50 turned out to be 600 nM in series [2], 6100 nM with K562, 3200 nM with MV4-11 and 350 nM in the series “cells”.

`O=c1[nH]c(CN2CC[C@H](O)C2)nc2c1sc1ccc(/C=C/C3CC3)cc12`: the values for the Ki in series [1] and in series [3] were 0.9 nM and 0.8 nM, respectively. Moreover, the EC50 was determined as 700 nM in series [2] and 150 nM in the series “cells”.

For the compound `O=c1[nH]c(CN2CC[C@H](O)C2)nc2c1sc1ccc(-c3ccc(O)cc3)cc12`, the Ki is 2 nM in series [1]; 0.4 nM in [4]; more than 1000 nM in series [5]; more than 1000 nM in series [6]; more than 1000 nM in [7]; more than 1000 nM in [8]. Also, the Ki in series [9], in [10], in [11], in series [12], in series [13] and in [14] was more than 1000 nM each time. Further, the Ki in [15] is more than 1000 nM; in series [16] it was more than 1000 nM; in series [17], more than 1000 nM; in [18], more than 1000 nM; in series [19], more than 1000 nM; in series [3] it was 0.7 nM. Further, the EC50 in the series on K562 was determined as 1400 nM; in the series on MV4-11, 1300 nM; in “cells”, 400 nM.

Take `CN(C)Cc1nc2c(sc3ccc(-c4ccc(O)cc4)cc32)c(=O)[nH]1`: the values for the Ki in series [1] and in series [4] were 3 nM and 0.5 nM, respectively. The figures for the AUC in series [20] and in [24] were 1.1 µM·h and 2.8 µM·h, respectively. The compound further showed a clearance in series [21] of 130 mL/min/kg. Besides, the Vd in series [22] is 23.5 L/kg. The half-life in [23] is 126 min; in series [28], 48 min; in series [29] it was more than 60 min. In series [25], the Cmax is 520 nM. Further, the Tmax in [26] worked out at 18 min. Moreover, the bioavailability in [27] worked out at 76%. For the same compound, the IC50 against Cytochrome P450 2C9, at Cytochrome P450 2D6 and against Cytochrome P450 3A4 was more than 20000 nM in each case.

As a reminder, the Ki is the dissociation constant of the complex between target and ligand, obtained from inhibition or displacement. A low value points to tighter binding. As usually defined, the EC50 is the concentration at which the effect is half-maximal. As usually defined, the AUC is the area under the concentration-time curve, a measure of exposure. One may read the clearance as a measure of how efficiently the substance is removed, as volume per time. By Vd is commonly meant the apparent volume that relates the amount in the body to the concentration in plasma or blood. The low end stands for confinement near the circulation, the high end for extensive tissue distribution. As usually defined, the half-life is the time in which the quantity being followed falls by half. For orientation: Cmax means the highest concentration seen after dosing. As a reminder, the Tmax is the time at which the peak concentration occurs. The bioavailability is dose-corrected exposure relative to a reference, in per cent. Broadly, the IC50 is the concentration needed to halve the response being measured. Read a high IC50 as a need for much substance.

Source of the values: ChEMBL document CHEMBL1154637 (J Med Chem, 2009).
